Columns and labels:
ARPE-19 cells = test: Chemosensitivity (MTT cell viability) assay, noncancerous ARPE-19; assay type: cell-based, human; conditions: ARPE-19 noncancerous, 96 h, n = 9
Description: The cytotoxicity of the compounds against the cancer cell lines was also compared to the noncancerous retinal epithelial cell line, ARPE-19, to determine the possibility of cancer cell selectivity. […]
All cytotoxicity assays were conducted using human cell lines: breast adenocarcinomas (MDA-MB-231 and MCF-7), pancreatic carcinoma (MIA PaCa-2) and non-cancerous epithelial retinal (ARPE-19) cell lines. All cell lines were routinely maintained as monolayer cultures in appropriate complete media:
MCF-7, MIA PaCa-2 and ARPE-19 in high glucose DMEM and MDA-MB-231 in RPMI-1640, and both media were supplemented with 10% FBS, 1 mM sodium pyruvate, 2 mM L-glutamine, and 1% pen-strep. All cells were initially grown in T-25 or T-75 flasks at 37 °C and 5% CO2. Before chemosensitivity studies, cell monolayers were passaged using trypsin-EDTA (0.05%) and diluted to a concentration of 1 x 10^4 cells/mL (or 4 x 10^4 cells mL for 24 h assays). All assays were conducted in 96-well plates, in which 100 µL of the cell suspension was added for 24 h at 37 °C and 5% CO2, and then 100 µL of compound/medium dilutions for a further 96 h (or 24 h). All compound stocks were made using sterile DMSO at 100 mM before dilution, and a maximum of 0.1% DMSO was used in each assay. After incubation, 3-(4,5-dimethylthiazol-2-yl)-2,5-diphenyltetrazolium bromide (20 µL, 5 mg/mL in PBS) was added to each well and incubated for 3 h at 37°C and 5% CO2. All solutions were then aspirated, DMSO (150 µL) added to each well, gently mixed, and the absorbance was measured at 540 nm using a ClarioStar spectrophotometer microplate reader. Results were plotted on a logarithmic scale, and the half maximal inhibitory concentration (IC50) was determined from a triplicate of triplicate repeats (n = 9) and reported as an IC 50 ± Standard Deviation (SD).

plasmid DNA = test: Plasmid DNA interaction, agarose gel electrophoresis; assay type: biochemical; conditions: 200 ng plasmid DNA, 100–400 μM, cell-free
Description: The ability of compounds to intercalate, nick, or cleave DNA can be evaluated using gel electrophoresis with plasmid DNA. In this study, in vitro plasmid DNA assays were performed by incubating 200 ng of plasmid DNA with different concentrations (100–400 μM) of 1 or CDDP, which served as a positive control. The DNA fragments were then separated via agarose gel electrophoresis, and potential changes in DNA migration patterns were analyzed.
5 Plasmid DNA (200 ng) was incubated with varying concentrations (100, 200, and 400 μM) of compound 1 or CDDP for 24 h at room temperature. The DNA was then separated via agarose gel electrophoresis, and the intensity of supercoiled and nicked circular DNA bands was quantified and expressed as mean ± SEM (n = 4).
(§1) MDA-MB-231 cells at 4000 cells/well were seeded into a black clear -bottom 96-well plate using phenol-red free complete RMPI medium, and incubated for 48 h. […] Fluorescence images were obtained using a Zeiss Observer 7 inverted microscope at excitation at 488 nm and emission at 509 […]
(§2) Plasmid DNA (200 ng, pBOS -H2B-GFP, BD Biosciences) was incubated overnight at room temperature with 1 or CDDP at concentrations between 100 and 400 μM in double -distilled H2O (20 μL total volume). […] The experiment was conducted in two biological replicates, and the band intensities were quantified and analyzed using ImageJ software. […]

MDA-MB-231 cells = test: Acridine orange/ethidium bromide (AO/EB) staining; assay type: cell-based, human; conditions: MDA-MB-231, 48 h
Description: To investigate how the drugs impacted cell viability, acridine orange (AO)/ethidium bromide (EtBr) staining was employed to identify the MDA-MB-231 cells' mode of death in response to compound 1 or CDDP, with AO marking early apoptotic cells in green and EtBr marking late apoptotic or necrotic cells in red. […] This effect was more pronounced than with CDDP, indicating its higher efficacy.
as §1, with “h. The cells were treated with 100 µM of 1 for 4 h alongside an untreated sample (control).” for “h.”
as §2
MDA-MB-231 cells were seeded in 6-well plates at a density of 1.2 × 10⁵ cells/well. […] The samples were then placed on microscope slides, covered with a coverslip, and their morphology was examined using a fluorescence microscope (Eclipse TS100, Nikon). […]

[Cp*Ir(C16H14NO)(PTA)](PF6) [Compound 1]
IC50 (ARPE-19 cells): 10.4 ± 0.7 µM | Plasmid DNA migration (plasmid DNA): did not induce any apparent shift | AO/EtBr staining (mode of cell death) (MDA-MB-231 cells): increased staining for both dyes

Source: PMC12406195, “Understanding the Modes of Action of β‑Ketoiminato Iridium(III) Complexes in Cancer Cells” (Inorganic Chemistry, 2025)
